Assay results: patent US10154667B2, “Broadleaf crop control with 6-arylpicoline carboxylic acids, 2-arylpyrimidine carboxylic acids, or salts or esters thereof” (Dow AgroSciences LLC, priority 2013, dated 2018)
Read-outs that look alike come from different tables or passages of the source.

What was measured:
Assay type in all cases: in vivo, Glycine max
[1] = system: Maverick GLXMA (conventional soybean); assay: Greenhouse evaluation of broadleaf volunteer crop control, Maverick soybean; details: for pest or weed control at 1.1 g/ha / pest or weed control at 2.2 g/ha / pest or weed control at 4.4 g/ha / pest or weed control at 8.75 g/ha / pest or weed control at 17.5 g/ha: Glycine max, 504 h, read-out: Average Percent Crop Control after Treatment, Maverick GLXMA
Description: (§1) Test plants were grown in METRO-MIX® 360 (SunGro Horticulture, Bellevue, Wash.) in 132.7 square centimeters (cm^2) plastic pots for 7-21 days in a greenhouse with an approximate 15 hour (h) photoperiod which was maintained at about 23-29° C. during the day and 22-28° C. during the night. Plants were grown to the 2 to 3 leaf stage prior to applications. Both conventional soybean crops varieties, Maverick and Resnick, and herbicide resistant (HT) varieties AAD12, AAD1, and ROUNDUP® ready soybean crops were treated.
(§2) A weighed amount, determined by the highest rate to be tested, of each test compound was placed in a 25 milliliter (mL) glass vial and was dissolved in 4 mL of a 97:3 v/v (volume/volume) mixture of acetone and dimethyl sulfoxide (DMSO), which will be referred to as General Purpose Solvent (GPS), to obtain concentrated stock solutions. […] The concentrated stock solutions obtained were diluted with 20 mL of an aqueous mixture containing water, GPS, isopropyl alcohol, ATPLUS® 411F crop oil concentrate, and TRITON® X-155 surfactant in a 46:42:12:1.0:0.02 v/v ratio to obtain spray solutions containing the highest application rates. Additional application rates were obtained by serial dilution of 12 mL of the high rate solution into a solution containing 2 mL of 97:3 v/v (volume/volume) mixture of acetone and dimethyl sulfoxide (DMSO) and 10 mL of an aqueous mixture containing water, GPS, isopropyl alcohol, ATPLUS® 411F crop oil concentrate, and TRITON® X-155 surfactant in a 46:42:12:1.0:0.02 v/v ratio to obtain 1/2X, 1/4X, 1/8X and 1/16X rates of the high rate (X). Compound requirements are based upon a 12 mL application volume at a rate of 187 L/ha. Formulated compounds were applied to the plant material with an overhead Mandel track sprayer equipped with 8002E nozzles calibrated to deliver 187 L/ha over an application area of 0.503 square meters (m^2) at a spray height of 18 inches (43 cm) above the average plant canopy height. Control plants were sprayed in the same manner with the solvent blank. The treated plants and control plants were placed in a greenhouse as described above and watered by sub-irrigation to prevent wash-off of the test compounds. After 21 days, the condition of the test plants as compared with that of the control plants was determined visually and scored on a scale of 0 to 100 percent where 0 corresponds to no injury and 100 corresponds to complete kill, and results are listed in Table 1 along with active ingredients and their respective formulations. Each score in Table 1 represents an average obtained from results of three representative experiments.
(§3) Additional formulations with different 6-arylpicolinates were tested in the greenhouse on Maverick and RoundUp-ready soybean crops using the procedure described above. Each score in Table 2 represents an average obtained from results of three representative experiments.

[2] = system: RoundUp Ready GLXMA (HT variety soybean); assay: Greenhouse evaluation of broadleaf volunteer crop control, RoundUp ready soybean; details: for pest or weed control at 1.1 g/ha / pest or weed control at 2.2 g/ha / pest or weed control at 4.4 g/ha / pest or weed control at 8.75 g/ha / pest or weed control at 17.5 g/ha: Glycine max, 504 h, read-out: Average Percent Crop Control after Treatment, RoundUp Ready GLXMA
Description: as §1, §2, §3

[3] = system: ROUNDUP READY soybeans (GLXMA); assay: Field evaluation with various herbicides, 46 days after treatment; details: for % Crop Control: 46 Days After Treatment
Text: (§4) The average percent visual control of ROUNDUP READY® soybeans (GLXMA) 46 days after treatment with various herbicides with standard formulation in comparison with compound of Formula (IV) at specified rates are provided in Table 6 below. The data was the result of conducting factorial replicated field trials (4 trials) by applying the compositions at a spray pressure of 300 kPa and a spray volume of 200 L/ha. The treated plots and control plots were visually rated blind at the specified dates after application. Ratings were based on a scale of 0-100%, as discussed above, wherein 0% indicates complete growth of the undesired vegetation and 100% indicates complete prevention/eradication of the undesired vegetation.

[4] = system: ROUNDUP READY soybeans (GLXMA); assay: Field evaluation with various herbicides, 30 days after treatment; details: for % Crop Control: 30 Days After Treatment
Text: as §4, with “The” for “The average percent visual control of ROUNDUP READY® soybeans (GLXMA) 46 days after treatment with various herbicides with standard formulation in comparison with compound of Formula (IV) at specified rates are provided in Table 6 below. The”, “(3” for “(4”

[5] = 1.1 g ae/ha, greenhouse, 2 to 3 leaf stage, after 21 days, 0 no injury, 100 complete kill
[6] = 2.2 g ae/ha, greenhouse, 2 to 3 leaf stage, after 21 days, 0 no injury, 100 complete kill
[7] = 4.4 g ae/ha, greenhouse, 2 to 3 leaf stage, after 21 days, 0 no injury, 100 complete kill
[8] = 8.75 g ae/ha, greenhouse, 2 to 3 leaf stage, after 21 days, 0 no injury, 100 complete kill
[9] = 17.5 g ae/ha, greenhouse, 2 to 3 leaf stage, after 21 days, 0 no injury, 100 complete kill

| SMILES | pest or weed control at 1.1 g/ha [1, 5] [%] | pest or weed control at 2.2 g/ha [1, 6] [%] | pest or weed control at 4.4 g/ha [1, 7] [%] | pest or weed control at 8.75 g/ha [1, 8] [%] | pest or weed control at 17.5 g/ha [1, 9] [%] | pest or weed control at 1.1 g/ha [2, 5] [%] | pest or weed control at 2.2 g/ha [2, 6] [%] | pest or weed control at 4.4 g/ha [2, 7] [%] | pest or weed control at 8.75 g/ha [2, 8] [%] | pest or weed control at 17.5 g/ha [2, 9] [%] | further results |
| --- | --- | --- | --- | --- | --- | --- | --- | --- | --- | --- | --- |
| COc1c(Cl)ccc(-c2nc(C(=O)OCc3ccccc3)c(Cl)c(N)c2F)c1F | – | – | – | – | – | – | – | – | – | – | pest or weed control at 1.1 g/ha [1]: 100%; pest or weed control at 2.2 g/ha [1]: 100%; pest or weed control at 4.4 g/ha [1]: 100%; pest or weed control at 8.75 g/ha [1]: 100%; pest or weed control at 17.5 g/ha [1]: 100%; pest or weed control at 1.1 g/ha [2]: 100%; pest or weed control at 2.2 g/ha [2]: 100%; pest or weed control at 4.4 g/ha [2]: 100%; pest or weed control at 8.75 g/ha [2]: 100%; pest or weed control at 17.5 g/ha [2]: 100% |
| Nc1cc(-c2ccc(Cl)cc2F)nc(C(=O)O)c1Cl | 100 | 100 | 100 | 100 | 100 | 100 | 100 | 100 | 100 | 100 | – |
| Cc1c(Cl)ccc(-c2cc(N)c(Cl)c(C(=O)O)n2)c1F | 53 | 82 | 99 | 100 | 100 | 57 | 80 | 98 | 100 | 100 | – |
| Cc1ccc(-c2cc(N)c(Cl)c(C(=O)O)n2)cc1 | 100 | 100 | 100 | 100 | 100 | 90 | 100 | 100 | 100 | 100 | – |
| Nc1c(F)c(-c2ccc3c(c2)OCO3)nc(C(=O)O)c1Cl | 27 | 42 | 58 | 95 | 100 | 32 | 45 | 73 | 92 | 98 | – |
| COC(=O)c1nc(-c2ccc(Cl)cc2OC)cc(N)c1Cl | 98 | 100 | 100 | 100 | 100 | 95 | 99 | 100 | 100 | 100 | – |
| CNC.O=C(O)COc1ccc(Cl)cc1Cl [2,4-D-dma] | – | – | – | – | – | – | – | – | – | – | % Crop Control ([3]; 1300 g ai/Ha): 97.3% |
| CC(O)CN(CC(C)O)CC(C)O.Nc1cc(Cl)nc(C(=O)O)c1Cl (stereo not shown) [Aminopyralid TIPA] | – | – | – | – | – | – | – | – | – | – | % Crop Control ([4]; 1.25 g ai/Ha): 60% |
| CCNc1nc(Cl)nc(NC(C)C)n1 [Atrazine] | – | – | – | – | – | – | – | – | – | – | % Crop Control ([4]; 1500 g ai/Ha + 1% J'Oil): 86.7%; % Crop Control ([4]; 1500 g ai/Ha): 75% |
| O=C(O)c1nc(Cl)ccc1Cl [Clopyralid] | – | – | – | – | – | – | – | – | – | – | % Crop Control ([3]; 54 g ai/Ha): 93.8% |
| C#CCN1C(=O)COc2cc(F)c(N3C(=O)C4=C(CCCC4)C3=O)cc21 [Flumioxazin] | – | – | – | – | – | – | – | – | – | – | % Crop Control ([3]; 25 g ai/Ha): 0% |
| Nc1c(Cl)c(F)nc(OCC(=O)O)c1Cl [Fluroxypyr] | – | – | – | – | – | – | – | – | – | – | % Crop Control ([3]; 200 g ai/Ha): 100% |
| COc1c(Cl)ccc(-c2nc(C(=O)O)c(Cl)c(N)c2F)c1F [Formula (III)] | – | – | – | – | – | – | – | – | – | – | % Crop Control ([4]; 18 g ai/Ha): 100%; herbicidal activity in genetically engineered crops as compared to other commercially known herbicides ([4]; RoundUp Ready soybeans): comparable or superior |
| COc1c(Cl)ccc(-c2cc(N)c(Cl)c(C(=O)O)n2)c1F [Formula (IV)] | – | – | – | – | – | – | – | – | – | – | % Crop Control ([3]; 17 g ai/Ha): 93%; herbicidal activity in genetically engineered crops as compared to other commercially known herbicides ([3]; RoundUp Ready soybeans): comparable or superior |
| CCOc1cc(Oc2ccc(C(F)(F)F)cc2Cl)ccc1[N+](=O)[O-] [Oxyfluorfen] | – | – | – | – | – | – | – | – | – | – | % Crop Control ([4]; 72 g ai/Ha): 16.7% |
| COc1cnc(OC)n2nc(NS(=O)(=O)c3c(OCC(F)F)cccc3C(F)(F)F)nc12 [Penoxsulam] | – | – | – | – | – | – | – | – | – | – | % Crop Control ([4]; 18 g ai/Ha): 87.3% |
| COc1c(Cl)ccc(-c2nc(C(=O)O)c(Cl)c(N)c2F)c1F [drawing 13] | – | – | – | – | – | 100 | – | – | – | – | Average Percent Crop Control after Treatment, Maverick GLXMA [1, 5]: 100%; Average Percent Crop Control after Treatment, Maverick GLXMA [1, 6]: 100%; Average Percent Crop Control after Treatment, Maverick GLXMA [1, 7]: 100%; Average Percent Crop Control after Treatment, Maverick GLXMA [1, 8]: 100%; Average Percent Crop Control after Treatment, Maverick GLXMA [1, 9]: 100%; Average Percent Crop Control after Treatment, RoundUp Ready GLXMA [2, 6]: 100%; Average Percent Crop Control after Treatment, RoundUp Ready GLXMA [2, 7]: 100%; Average Percent Crop Control after Treatment, RoundUp Ready GLXMA [2, 8]: 100%; Average Percent Crop Control after Treatment, RoundUp Ready GLXMA [2, 9]: 100% |
| COc1c(Cl)ccc(-c2cc(N)c(Cl)c(C(=O)O)n2)c1F [drawing 15] | 100 | 100 | 100 | 100 | 100 | 100 | 100 | 100 | 100 | 100 | – |
| COc1ncc(F)c2nc(S(=O)(=O)Nc3c(F)cccc3F)nn12 [florasulam] | – | – | – | – | – | – | – | – | – | – | % Crop Control ([4]; 5 g ai/Ha + 1% J'Oil): 63.3% |
